# Assay results reported in patent US20080161272A1, “Ceramide derivatives, method for preparing the same, and therapeutic agent for treating atopic dermatitis comprising the ceramide derivatives” (Neopharm Co., Ltd., priority 2006, published 2008).
# Legend:
# NC/Nga mouse = test: Atopic dermatitis caused by dust mite extract in NC/Nga mouse, ear thickness; format: in vivo; conditions: two kinds of dust mites (D. pteronyssinus, D. farinae), applied to ear dorsal surface 30 minutes before extract, 16 days, FIGS. 2 and 3
# Excerpt: Next, an animal model (NC/Nga mouse) where a mouse suffers from atopic dermatitis was used to evaluate an inflammation control effects of the K6PC-9P on the atopic dermatitis. The NC/Nga mouse is a mouse that spontaneously suffers from the dermatitis, and has been proven to be an animal model that is the most suitably used to treat atopic dermatitis. Therefore, The NC/Nga mouse has been widely used in the animal model to evaluate substances that are effective to treat the atopic dermatitis. For this experiment, a dust mite that is a representative inducer factor of the atopic dermatitis was applied to a NC/Nga mouse to induce the dermatitis.
# The extract of dust mite (Dermatophagoides pteronyssinus, Dermatophagoides farinae) was commercially available from Woongbee Meditech Co. (Korea), and the dust mite extract was dissolved in 10 mg/ml of phosphate buffered saline (PBS) containing 0.5% Tween 20, and then used herein. NC/Nga mice were bred under conventional breeding conditions, and induced to develop into the atopic dermatitis. […] The […] and K6PC-9 were applied onto the ear dorsal surfaces of the mice 30 minutes before the application of the dust mite extract, and the efficiency of the therapeutic agent was evaluated for a level of an intercurrent disease by measuring a thickness of a mouse ear.
# T lymphocyte = test: Effects on generation of cytokines in ConA-activated spleen T lymphocyte (ELISA); format: cell-based; conditions: Balb/C mouse spleen cells, ConA 1 μg/ml, pre-treated 30 minutes before, 48 hours, 1, and 20 μM, FIG. 1
# Method: First, in order to determine effects of K6PC-9P and K6PC-9 on generation of cytokines in T lymphocyte, spleen T lymphocyte was separated, and then treated with ConA for its activation. […] Accordingly, substances that increase the expression of the Th1 cytokines or suppress the expression of the Th2 cytokines may be useful to treat the atopic dermatitis. In this experiment, the K6PC-9P and K6PC-9 were evaluated for their control abilities to express the Th1 cytokine, interleukin-2, and the Th2 cytokine, interleukin-4.
# The mouse spleen was extracted from a Balb/C mouse to separate splenocyte. The separated splenocyte was plated onto a 96-well plate in a density of 1×10^6 cells/ml. Then, T lymphocyte in the splenocyte was activated with ConA (1 μg/ml). The K6PC-9P and K6PC-9 were pre-treated 30 minutes before the treatment with ConA. 48 hours after the treatment with ConA, culture supernatant was collected, and subject to the ELISA (enzyme-linked immunosorbent assay). The ELISA used an ELISA kit from a R&D system, and performed experiments, as follows. However, the method specified later is described as one example, and the method is identical over the entire procedures, but densities of antibodies and standard sample may be slightly varied depending on the kinds of cytokines to be measured. A capture antibody was diluted to a density of 0.6 μg/ml, and transferred to an ELISA plate by 100 μl, and the plate was sealed and kept overnight at a room temperature. The capture antibody was discarded, and the plate was washed three times with a wash buffer (PBS containing 0.05% Tween 20 (pH 7.4)). 200 μl of a blocking buffer (PBS containing 1% BSA, 5% sucrose and 0.05% NaN) was put into plate wells, kept at a room temperature for 1 hour, and then washed three times with a wash buffer. The collected culture supernatant and the standard sample were prepared using a dilution buffer (TBS containing 0.1% BSA and 0.05% Tween 20), put into plate wells, and then kept at a room temperature for 2 hours. The plate was washed three times with a wash buffer, and a biotinylated detection antibody was diluted with a dilution buffer to a density of 200 ng/ml, and then put into the plate wells. 2 hours after the treatment, the plate was washed three times with a wash buffer, and streptavidin HRP was added to the plate, and then kept for 20 minutes. […] When the colors were suitably developed on the plate, the reaction was stopped with a stop solution (1M H2SO4), and its absorbance was measured at wavelengths of 450 nm and 540 nm. A standard curve was plotted using the standard absorbance obtained by subtracting a 540 nm absorbance value from a 450 nm absorbance value, and a density of cytokines to be measured was calculated using the standard absorbance of the culture supernatant.
# hairless mouse = test: Suppression of epidermal proliferation in tape-stripping hyperplasia model, epidermal thickness (H&E); format: in vivo; conditions: tape stripping twice per day for 5 days, 1% applied twice per day for 3 days, compared to the control (vehicle)
# Excerpt: Effects on Suppression of Epidermal Proliferation Next, in order to evaluate effects of the K6PC-9P on the skin hyperplasia that is one of the representative skin disorders in the atopic dermatitis, a hyperplasia model where a mouse has overgrown cuticles was established by repeating a tape stripping procedure on a hairless mouse in the Examples according to the present invention. This hyperplasia model was established since the atopic skin has ill-balanced conditions in the epidermal proliferation and differentiation, and particularly has an increased epidermal proliferation level, but has a pattern in which mouse epidermis grows abnormally due to the reduced differentiation level. Accordingly, to recover this ill-balanced condition into a normal state may be considered to be an important point to treat the atopic dermatitis.
# Hyperplasia in the back of a hairless mouse was induced by subjecting the tape stripping procedure twice per day for 5 days, and 1% K6PC-9P was applied to the hairless mouse twice per day for 3 days from the third day to fifth day of the induction of the atopic dermatitis. Then, mouse skin tissues were biopsied and fixed into a paraffin wax, and determined for epidermal thickness using a Hematoxylin & Eosin staining method. […]
SMILES,increase in the thickness of the mouse ear caused by dust mite extract (NC/Nga mouse),"generation of the Th1 cytokine, interleukin-2 (T lymphocyte)","generation of the Th2 cytokine, interleukin-4 (T lymphocyte)",growth of the mouse epidermis (epidermal thickness) (hairless mouse)
"CCCCCCCC(=O)C(CCCCCC)C(=O)NCCO (stereo not shown) [K6PC-9, N-ethanol-2-hexyl-3-oxo-decanamide, reference compound]",slight suppression effect,does not affect,does not affect,–
"CCCCCCCC(=O)C(CCCCCC)C(=O)NCCOP(=O)(O)O (stereo not shown) [K6PC-9P, N-(ethyl dihydrogenphosphate)-2-hexyl-3-oxo-decanamide]",significantly suppresses,increases,decreases,suppressed significantly
